Like-named read-outs stand apart in the source and are kept apart here.
Experiments:
[1] = molecular target: T1, PcpB (Sphingobium chlorophenolicum, UniProt P42535); experiment: Substrate disappearance in the presence of PcpB (substrate range); type: biochemical, Flavobacterium sp. Strain ATCC 39723; conditions: for (%) Relative Activity (substrate disappearance in the presence of PcpB): 10 nmoles substrate, 40 nmoles NADPH, PcpB 500 μg/ml, 80 mM potassium phosphate pH 7.5, 0.5% Tween 20, 23° C., PCP assumed 100%; for End Products of PcpB reaction: HPLC or GC/MS analysis
T1 construct: endogenous in cells; host or cells: Flavobacterium sp; Strain ATCC 39723, PCP-induced; enzyme purified in house from the native bacterium
T1 sequence (P42535 2-538): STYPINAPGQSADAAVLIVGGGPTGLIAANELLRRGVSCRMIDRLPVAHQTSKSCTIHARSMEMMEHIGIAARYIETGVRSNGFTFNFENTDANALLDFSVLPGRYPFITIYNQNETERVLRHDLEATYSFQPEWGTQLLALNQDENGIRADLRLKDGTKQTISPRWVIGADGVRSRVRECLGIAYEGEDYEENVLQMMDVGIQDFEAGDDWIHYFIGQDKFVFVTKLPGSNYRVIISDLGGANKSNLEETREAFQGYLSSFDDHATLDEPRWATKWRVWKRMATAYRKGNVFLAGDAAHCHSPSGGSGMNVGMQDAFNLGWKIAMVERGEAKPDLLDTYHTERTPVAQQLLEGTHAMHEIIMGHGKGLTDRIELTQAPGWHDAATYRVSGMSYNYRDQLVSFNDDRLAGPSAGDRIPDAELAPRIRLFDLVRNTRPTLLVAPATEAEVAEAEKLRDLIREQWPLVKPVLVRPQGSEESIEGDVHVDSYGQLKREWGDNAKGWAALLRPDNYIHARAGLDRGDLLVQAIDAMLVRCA
Procedure: A stock solution of PCP (concentration, 37.6 mM) was prepared in 0.2M NaOH and stored in the dark at room temperature. Stock solutions of all other halogenated aromatic compounds (concentration, 20 mM) were prepared in absolute ethanol and stored at 4° C. in the dark. The NADPH solution of 10 mM was freshly prepared in 1 mM dithiothreitol and 1 mM Tris base (pH 13).
PcpB was purified as described above. Enzyme reactions were conducted in 80 mM potassium phosphate buffer (pH 7.5) with 0.5% Tween 20 at 23° C. The enzyme concentration was 500 μg/ml in all reactions.
All of the aromatic substrates and the corresponding enzyme product (aromatic portion) were monitored by reverse phase high-performance liquid chromatography (HPLC) analysis as described above for PCP and TeCH analysis, except that the absorptions at 285, 300, and 310 nm were recorded by using a Waters 490 E programmable multiwavelength UV detector. Gas chromatography/mass spectrometry (GC/MS) analysis was done as previously described (Topp and Akhtar, 1990).
I^- was measured by the Leuco crystal violet assay described above. NO2 was colorimetrically measured using the N-(1-naphthyl) ethylenediamine dihydrochloride-sulfanilamide reagent method (American Public Health Association, 17th Ed., 1989). NH3 was colorimetrically measured by Nesslerization method (American Public Health Association, 17th Ed., 1989). CN was measured by the colorimetric method of Nagashima (1984). NH2 OH was measured by the method of Magee and Burris (1954).
^a All enzyme reactions were conducted in a reaction mix volume of 10
μl, containing 10 nmoles of substrate, 40 nmoles of NADPH. The
substrate depletion and product production were measured by HPLC or GC/MS
analysis. Relative enzyme activity for PCP was assumed to be 100%; the
relative enzyme activities for other compounds were compared with that fo

[2] = molecular target: T1, PcpB; conditions: GC/MS; cited from earlier work
[3] = molecular target: T1, PcpB; experiment: PCP degradation as an assay of PcpB activity (HPLC); type: biochemical, Flavobacterium sp. Strain ATCC 39723
Procedure: PcpB activity was assayed by measuring the depletion of PCP and/or the production of TECH. […] MgSO4 was later determined not to enhance the activity of the purified enzyme. Tween 20 was determined to facilitate reproducible quantitation of PCP by high-performance liquid chromatography (HPLC) analysis as described below. A 10 μl volume of reaction mixture was injected onto the HPLC column at 4 min. after the start of the reaction. One unit of enzyme activity was defined as the amount of enzyme that catalyzed the production of 1 μmol of TeCH or the consumption of 1 μmol of PCP per min under the assay conditions. The reaction rate was linear for about 5 min. with […] of the enzyme, and then the reaction rate decreased gradually over the next 15 min.
PCP and TeCH were analyzed by HPLC (Waters, Milford, Mass.) on a Nova-Pak C18 column (3.9 by 150 mm) with an 11 mM H3 PO4 -acetonitrile gradient (acetonitrile concentrations 10 to 65% 5 min.! and 65% 10 min.!). Maximum absorption at 310, 320, and 330 nm was recorded by use of a Waters 490E programmable multiwavelength UV detector connected to a Maxima NEC computer workstation (Waters). The retention times of PCP and TeCH were 11.5 and 8.9 min., respectively. PCP and TeCH were quantified by comparing their peak areas with the peak areas of authentic standards. NADPH concentration in the reaction mixture was measured by HPLC on the Nova-Pak C18 column with an isocratic 50 mM KPi buffer (ph 8.0). Flavins were determined by HPLC on a μCarbohydrate analyzing column (3.9 by 300 mm) (Analytical Sciences Incorporated, Santa Clara, Calif.) with an isocratic solution of acetonitrile-distilled water (60:40, vol/vol). Protein purity was checked by HPLC on a Delta Pak C18 30 nm column (3.9 by 150 mm) with a water-acetonitrile gradient containing 0.1% trifluoroacetic acid (acetonitrile concentrations, 15% 1 min.!, 15 to 40% 1 min.!, 40% 2 min.!, 40 to 75% 8 min.!, 75 to 100% 1 min.!, 100% 7 min.!, 100 to 15% 1 min.!) at a flow rate of 1 ml/min. […]
and incubated at room temperature for 4 min. before being analyzed by […]

[4] = Stability of TeCH in the PcpB reaction mixture; type: physicochemical
[5] = molecular target: T2, PcpC (Sphingobium chlorophenolicum, UniProt Q03520); type: biochemical, Flavobacterium sp. Strain ATCC 39723; conditions: 33 μg of purified enzyme per ml; GC-MS of ether extract
T2 construct: endogenous in cells; host or cells: Flavobacterium sp; Strain ATCC 39723, PCP-induced; enzyme purified in house from the native bacterium
T2 sequence (Q03520 2-248): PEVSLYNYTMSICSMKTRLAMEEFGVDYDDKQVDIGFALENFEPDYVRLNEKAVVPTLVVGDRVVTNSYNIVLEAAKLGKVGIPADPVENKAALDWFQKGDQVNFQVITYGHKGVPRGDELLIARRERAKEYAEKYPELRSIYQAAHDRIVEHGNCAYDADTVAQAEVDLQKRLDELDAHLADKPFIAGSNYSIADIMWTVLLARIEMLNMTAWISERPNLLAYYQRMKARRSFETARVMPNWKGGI
Procedure: Enzymatic activity assay. The reaction mixture contained 50 mM KPi buffer (pH 7.4), 0.4% Tween 20 (Sigma), 100 μM of TeCH, and 1 mM ascorbic acid. All the reactions were incubated at 23° C. in an anaerobic chamber containing an atmosphere of 85% N2, 5% CO2, and 10% H2 (Coy Laboratory Products Inc., Ann Arbor, Mich.). The reactions were stopped by addition of an equal volume of acetonitrile to the reaction mixture. TeCH stock solution (20 mM) was prepared in absolute ethanol. NADPH and NADH stock solutions (10 mM) were freshly prepared in 1 mM Tris buffer (pH 13) with 1 mM dithiothreitol. […]
Analytical method. […] TeCH, TrCH and DiCH were analyzed by HPLC on a Nova-Pak C-18 column (3.9 by 150 mm) (Waters, Milford, Mass.) with an 11 mM H3 PO4 -acetonitrile gradient as described above. Maximum absorption at 285, 300, 310 nm was recorded by using a Waters 490E programmable multiwave-length UV detector connected to a Maxima NEC computer workstation (Waters). […] TeCH and DiCH in the reaction mixtures were identified and quantified by comparison of their retention time and peak areas with that of authentic standards, respectively. TrCH was extracted with diethyl ether from the reaction mixture and analyzed by gas chromatography/mass spectrometry (GC/MS) as described by Topp and Akhtar (1990). […] GSH and the oxidized form of glutathione (GS-SG) were detected by the enzymatic method of Tietze (1969).

Row | Compound | (%) Relative Activity (substrate disappearance in the presence of PcpB) [1] [%] | End Products of PcpB reaction [1] | further results
1 | Oc1ccc(Cl)c(Cl)c1Cl [2,3,4-Trichlorophenol] | 29 |  | 
2 | Oc1c(Cl)c(Cl)cc(Cl)c1Cl [2,3,5,6-Tetrachlorophenol] | 1212 | TeCH | 
3 | Oc1c(Cl)ccc(Cl)c1Cl [2,3,6-Trichlorophenol, 2,3,6-trichlorophenol] | 302 | 2,3,6-trichloro-p-hydroquinone | 
4 | Oc1cccc(Cl)c1Cl [2,3-Dichlorophenol] | 24 |  | 
5 | Oc1c(Br)cc(Br)cc1Br [2,4,6-Tribromophenol] | 35 |  | 
6 | Oc1c(Cl)cc(Cl)cc1Cl [2,4,6-Trichlorophenol, 2,4,6-trichlorophenol] | 29 | 2,6-dichloro-p-hydroquinone | 
7 | Oc1c(I)cc(I)cc1I [2,4,6-Triiodophenol] | 172 | 2,6-diiodo-p-hydroquinone | 
8 | O=[N+]([O-])c1cc(Br)c(O)c(Br)c1 [2,6-Dibromo-4-nitrophenol] | 62 |  | 
9 | Oc1c(Br)cccc1Br [2,6-Dibromophenol] | 605 |  | 
10 | Oc1c(Cl)cccc1Cl [2,6-Dichlorophenol, 2,6-dichlorophenol] | 344 | 2,6-dichloro-p-hydroquinone | 
11 | Oc1cc(Cl)c(Cl)c(Cl)c1 [3,4,5-Trichlorophenol, 3,4,5trichlorophenol] | 0 | None | 
12 | N#Cc1cc(Br)c(O)c(Br)c1 [3,5-Dibromo-4-hydroxybenzonitrile] | 591 |  | End Products of PcpB reaction (from Topp et al.) [2]: 2,6-dibromo-p-hydroquinone
13 | Oc1cc(Cl)cc(Cl)c1 [3,5-Dichlorophenol, 3,5dichlorophenol] | 0 | None | 
14 | N#Cc1cc(I)c(O)c(I)c1 [3,5-Diiodo-4-hydroxybenzonitrile] | 835 |  | End Products of PcpB reaction ([1]; listed as 3,5-diiodo-4-hydroxylbenzonitrile): DIHQ
15 | Nc1cc(Cl)c(O)c(Cl)c1 [4-Amino-2,6-dichlorophenol] | 93 |  | 
16 | O=C(O)CN(CCN(CC(=O)O)CC(=O)O)CC(=O)O [EDTA] |  |  | influence of additive on activity of purified PcpB [3]: did not influence the enzymatic activity
17 | O=S(=O)([O-])[O-].[Mg+2] [MgSO4] |  |  | influence of additive on activity of purified PcpB ([3]; addition to 5 mM): did not influence the enzymatic activity
18 | Oc1c(Cl)c(Cl)c(Cl)c(Cl)c1Cl [Pentachlorophenol] | 100 |  | End Products of PcpB reaction ([1]; listed as PCP): TeCH; Conversion of PCP to TeCH by purified PcpB ([3]; 37 μM PCP, 100 mM KPi buffer (pH 7.0), 100 μM NADPH, within 20 min.): completely converted
19 | Oc1c(F)c(F)c(F)c(F)c1F [Pentafluorophenol] | 47 |  | 
20 | Oc1c(Cl)c(Cl)c(O)c(Cl)c1Cl [TeCH, 2,3,5,6-tetrachloro-p-hydroquinone] |  |  | stability of TeCH ([4]; optimal pH conditions (7.5 to 9.0)): highly unstable; stability of TeCH ([4]; pH lower than 7.5): relatively stable; product of TeCH conversion by TeCH reductive dehalogenase [5]: DiCH
21 | Oc1ccccc1 [phenol] |  |  | Extent of oxidation/degradation by the enzyme [1]: not degraded

Reference: patent US5512478A, “Genes and enzymes involved in the microbial degradation of pentachlorophenol” (Idaho Research Foundation, Inc., priority 1994, dated 1996)
